± gives the uncertainty stated by the source.
Experiment: xn = mol fraction of the nth substance listed

ClC(Cl)(Cl)Cl + C[N+](=O)[O-] gave a viscosity (298 K, 101.3 kPa, x1 = 0.0959) of 0.636 ± 0.008 mPa·s, a viscosity (298 K, 101.3 kPa, x1 = 0.1961) of 0.655 ± 0.008 mPa·s and a viscosity (298 K, 101.3 kPa, x1 = 0.3609) of 0.702 ± 0.008 mPa·s. It also gave a viscosity (298 K, 101.3 kPa, x1 = 0.5088) of 0.751 ± 0.009 mPa·s, a viscosity (298 K, 101.3 kPa, x1 = 0.7487) of 0.805 ± 0.009 mPa·s and a viscosity (298.15 K, 101 kPa, x2 = 0.1023) of 0.884 ± 0.0087 mPa·s. The viscosity (298.15 K, 101 kPa, x2 = 0.1662) was 0.8265 ± 0.083 mPa·s, the viscosity (298.15 K, 101 kPa, x2 = 0.2011) was 0.8405 ± 0.0084 mPa·s and the viscosity (298.15 K, 101 kPa, x2 = 0.2958) was 0.8074 ± 0.0082 mPa·s. For the same compound, the viscosity (298.15 K, 101 kPa, x2 = 0.3102) was 0.7692 ± 0.078 mPa·s, the viscosity (298.15 K, 101 kPa, x2 = 0.3946) was 0.7776 ± 0.008 mPa·s and the viscosity (298.15 K, 101 kPa, x2 = 0.4351) was 0.7285 ± 0.073 mPa·s. The viscosity (298.15 K, 101 kPa, x2 = 0.4978) was 0.7481 ± 0.0078 mPa·s, the viscosity (298.15 K, 101 kPa, x2 = 0.5452) was 0.6969 ± 0.07 mPa·s and the viscosity (298.15 K, 101 kPa, x2 = 0.6013) was 0.7175 ± 0.0076 mPa·s. It also gave a viscosity (298.15 K, 101 kPa, x2 = 0.6424) of 0.6735 ± 0.068 mPa·s, a viscosity (298.15 K, 101 kPa, x2 = 0.701) of 0.6857 ± 0.0075 mPa·s and a viscosity (298.15 K, 101 kPa, x2 = 0.7297) of 0.6556 ± 0.066 mPa·s. For the same compound, the viscosity (298.15 K, 101 kPa, x2 = 0.799) was 0.6627 ± 0.0073 mPa·s, the viscosity (298.15 K, 101 kPa, x2 = 0.8077) was 0.6427 ± 0.065 mPa·s and the viscosity (298.15 K, 101 kPa, x2 = 0.878) was 0.6339 ± 0.064 mPa·s. It also gave a viscosity (298.15 K, 101 kPa, x2 = 0.9009) of 0.6481 ± 0.0073 mPa·s, a viscosity (298.15 K, 101 kPa, x2 = 0.9419) of 0.6295 ± 0.064 mPa·s and a viscosity (303.15 K, 101 kPa, x2 = 0.1) of 0.7718 ± 0.021 mPa·s. For the same compound, the viscosity (303.15 K, 101 kPa, x2 = 0.1023) was 0.8319 ± 0.0083 mPa·s, the viscosity (303.15 K, 101 kPa, x2 = 0.2) was 0.7427 ± 0.02 mPa·s and the viscosity (303.15 K, 101 kPa, x2 = 0.2011) was 0.7922 ± 0.0081 mPa·s. The viscosity (303.15 K, 101 kPa, x2 = 0.2958) was 0.7599 ± 0.0079 mPa·s, the viscosity (303.15 K, 101 kPa, x2 = 0.3) was 0.7058 ± 0.019 mPa·s and the viscosity (303.15 K, 101 kPa, x2 = 0.3946) was 0.735 ± 0.0078 mPa·s. It also gave a viscosity (303.15 K, 101 kPa, x2 = 0.4) of 0.6831 ± 0.018 mPa·s, a viscosity (303.15 K, 101 kPa, x2 = 0.4978) of 0.7052 ± 0.0076 mPa·s and a viscosity (303.15 K, 101 kPa, x2 = 0.5) of 0.6569 ± 0.017 mPa·s. For the same compound, the viscosity (303.15 K, 101 kPa, x2 = 0.6) was 0.6415 ± 0.017 mPa·s, the viscosity (303.15 K, 101 kPa, x2 = 0.6013) was 0.6783 ± 0.0074 mPa·s and the viscosity (303.15 K, 101 kPa, x2 = 0.7) was 0.624 ± 0.017 mPa·s. The viscosity (303.15 K, 101 kPa, x2 = 0.701) was 0.6511 ± 0.0073 mPa·s, the viscosity (303.15 K, 101 kPa, x2 = 0.799) was 0.6308 ± 0.0072 mPa·s and the viscosity (303.15 K, 101 kPa, x2 = 0.8) was 0.6126 ± 0.016 mPa·s. The viscosity (303.15 K, 101 kPa, x2 = 0.9) was 0.6123 ± 0.016 mPa·s, the viscosity (303.15 K, 101 kPa, x2 = 0.9009) was 0.6177 ± 0.0071 mPa·s and the viscosity (308.15 K, 101 kPa, x2 = 0.1) was 0.7423 ± 0.02 mPa·s. The viscosity (308.15 K, 101 kPa, x2 = 0.1023) was 0.7884 ± 0.0081 mPa·s, the viscosity (308.15 K, 101 kPa, x2 = 0.2) was 0.6974 ± 0.018 mPa·s and the viscosity (308.15 K, 101 kPa, x2 = 0.2011) was 0.7475 ± 0.0079 mPa·s. The viscosity (308.15 K, 101 kPa, x2 = 0.2958) was 0.7146 ± 0.0077 mPa·s, the viscosity (308.15 K, 101 kPa, x2 = 0.3) was 0.668 ± 0.018 mPa·s and the viscosity (308.15 K, 101 kPa, x2 = 0.3946) was 0.6899 ± 0.0075 mPa·s. The viscosity (308.15 K, 101 kPa, x2 = 0.4) was 0.6479 ± 0.017 mPa·s, the viscosity (308.15 K, 101 kPa, x2 = 0.4978) was 0.6672 ± 0.0074 mPa·s and the viscosity (308.15 K, 101 kPa, x2 = 0.5) was 0.626 ± 0.017 mPa·s. It also gave a viscosity (308.15 K, 101 kPa, x2 = 0.6) of 0.6063 ± 0.016 mPa·s, a viscosity (308.15 K, 101 kPa, x2 = 0.6013) of 0.6432 ± 0.0072 mPa·s and a viscosity (308.15 K, 101 kPa, x2 = 0.7) of 0.5927 ± 0.016 mPa·s. For the same compound, the viscosity (308.15 K, 101 kPa, x2 = 0.701) was 0.6169 ± 0.0071 mPa·s, the viscosity (308.15 K, 101 kPa, x2 = 0.799) was 0.5981 ± 0.007 mPa·s and the viscosity (308.15 K, 101 kPa, x2 = 0.8) was 0.5834 ± 0.015 mPa·s. For the same compound, the viscosity (308.15 K, 101 kPa, x2 = 0.9) was 0.5735 ± 0.015 mPa·s, the viscosity (308.15 K, 101 kPa, x2 = 0.9009) was 0.5901 ± 0.0069 mPa·s and the viscosity (313.15 K, 101 kPa, x2 = 0.1023) was 0.7324 ± 0.0079 mPa·s. It also gave a viscosity (313.15 K, 101 kPa, x2 = 0.2011) of 0.6952 ± 0.0076 mPa·s, a viscosity (313.15 K, 101 kPa, x2 = 0.2958) of 0.674 ± 0.0074 mPa·s and a viscosity (313.15 K, 101 kPa, x2 = 0.3946) of 0.648 ± 0.0073 mPa·s. For the same compound, the viscosity (313.15 K, 101 kPa, x2 = 0.4978) was 0.6232 ± 0.0072 mPa·s, the viscosity (313.15 K, 101 kPa, x2 = 0.6013) was 0.6053 ± 0.0071 mPa·s and the viscosity (313.15 K, 101 kPa, x2 = 0.701) was 0.5841 ± 0.0069 mPa·s. The viscosity (313.15 K, 101 kPa, x2 = 0.799) was 0.5675 ± 0.0068 mPa·s, the viscosity (313.15 K, 101 kPa, x2 = 0.9009) was 0.5621 ± 0.0068 mPa·s and the viscosity (318 K, 101.3 kPa, x1 = 0.0897) was 0.5256 ± 0.02 mPa·s. For the same compound, the viscosity (318 K, 101.3 kPa, x1 = 0.1941) was 0.5442 ± 0.021 mPa·s, the viscosity (318 K, 101.3 kPa, x1 = 0.3589) was 0.5822 ± 0.022 mPa·s and the viscosity (318 K, 101.3 kPa, x1 = 0.5073) was 0.6189 ± 0.023 mPa·s. It also gave a viscosity (318 K, 101.3 kPa, x1 = 0.7644) of 0.6719 ± 0.025 mPa·s, a viscosity (318.15 K, 101 kPa, x2 = 0.1) of 0.6487 ± 0.017 mPa·s and a viscosity (318.15 K, 101 kPa, x2 = 0.2) of 0.6201 ± 0.017 mPa·s. For the same compound, the viscosity (318.15 K, 101 kPa, x2 = 0.3) was 0.5962 ± 0.016 mPa·s, the viscosity (318.15 K, 101 kPa, x2 = 0.4) was 0.5782 ± 0.015 mPa·s and the viscosity (318.15 K, 101 kPa, x2 = 0.5) was 0.5609 ± 0.015 mPa·s. The viscosity (318.15 K, 101 kPa, x2 = 0.6) was 0.546 ± 0.015 mPa·s, the viscosity (318.15 K, 101 kPa, x2 = 0.7) was 0.5328 ± 0.014 mPa·s and the viscosity (318.15 K, 101 kPa, x2 = 0.8) was 0.5246 ± 0.014 mPa·s. The viscosity (318.15 K, 101 kPa, x2 = 0.9) was 0.5207 ± 0.014 mPa·s.

— the CheMixHub viscosity set
